The target in series [1] is T1, TRPA1 (Homo sapiens, UniProt O75762). Put plainly: Citric acid-induced Ca+2 influx in CCD19-Lu cells. It counts as cell-based. Further details: A549 cells have been reported to express endogenous TRPA1; host or cells: A549. How it is done:
(§1) Human lung fibroblast cells, CCD19-Lu (ATCC CCL-210) were obtained from American Type Culture Collection (ATCC; Rockville, MD, USA) and cultured in MEM supplemented with 10% FBS. Human pulmonary alveolar epithelial cell line A549 (ATCC CCL-185) was also obtained from ATCC and maintained in DMEM F-12 supplemented with 10% FBS. Both the cell types were cultured at 37°C in humidified air containing 5% CO2. Chinese hamster ovary (CHO) cells stably expressing human TRPA1 (hTRPA1/CHO), TRPV1 (hTRPV1/CHO), TRPV3 (hTRPV3/CHO), TRPV4 (hTRPV4/CHO and TRPM8 (hTRPM8/CHO were generated in-house and maintained in DMEM F-12 supplemented with 10% FBS and G418.
(§2) Fluorimetric and radiometric Ca^+2 influx assay was performed as described earlier. GRC 17536, GRC 17770, compound 7 or GRC 6211 was added to the cells 15 minutes prior to addition of agonist. Citric acid stock solution (1 M) was prepared in dH2O. Subsequent dilutions were made in Ca^+2, Mg^+2 free PBS (pH 7.3). No significant change in pH was observed upto 10 mM citric acid. At 30 mM concentration of citric acid, the pH of the solution dropped to 5.5. TLR ligands - LPS (10 µg/ml, TLR4), loxoribine (10 µM, TLR7) and ssRNA40 (1 µg/ml, TLR8) were dissolved in media and added to the cells for 16–18 hours. TRP selectivity of GRC 17536 and compound 7 was performed for TRPV1, TRPV3, TRPV4 and TRPM8 using Capsaicin (1 µM), 2-APB (1 mM), 4α-PDD (30 µM) and Icilin (250 nM) respectively, as agonist.

In series [2] the target is T1, TRPA1. The series can be described thus: Citric acid-induced Ca+2 influx in A549 cells. The class given is cell-based. Further details: A549 cells have been reported to express endogenous TRPA1; host or cells: A549. The protocol:
as §1, §2

The target of series [3] is T2, TRPV1 (Homo sapiens, UniProt Q8NER1).
T2 construct: expressed in transfected cells
Put plainly: TRP selectivity, hTRPV1/CHO, Capsaicin as agonist. The class given is cell-based. The conditions noted are these: agonist Capsaicin (1 µM). The protocol: as §1
as §2, with “TRP selectivity of GRC 17536 and compound 7 was performed for TRPV1, TRPV3, TRPV4 and TRPM8 using Capsaicin (1 µM), 2-APB (1 mM), 4α-PDD (30 µM) and Icilin (250 nM) respectively, as agonist.” left out

The nature of series [4]: Plasma concentration in the cough model. The class given is in vivo. The conditions noted are these: at the EDmax dose (∼89% suppression of cough), guinea pig, i.p.
Series [5] deals with T1, TRPA1. On the set-up: A549 cells have been reported to express endogenous TRPA1; host or cells: A549; method as in PMID 21848366. The note with it: A549 cells; read-out: IC50 with AITC as agonist; cited from earlier work.
Series [6] deals with T3, TRPM8 (Homo sapiens, UniProt Q7Z2W7).
T3 construct: expressed in transfected cells
Put plainly: TRP selectivity, hTRPM8/CHO, Icilin as agonist. It counts as cell-based. The conditions noted are these: agonist Icilin (250 nM). The protocol: as §1
as §2, with “TRP selectivity of GRC 17536 and compound 7 was performed for TRPV1, TRPV3, TRPV4 and TRPM8 using Capsaicin (1 µM), 2-APB (1 mM), 4α-PDD (30 µM) and Icilin (250 nM) respectively, as agonist.” left out

Series [7] has as its target T1, TRPA1. The series can be described thus: TLR ligand-enhanced 45Ca+2 uptake in A549 cells. The class given is cell-based. Further details: A549 cells have been reported to express endogenous TRPA1; host or cells: A549. How it is done:
as §1, §2

Series [8] has as its system citric acid induced cough response. The series can be described thus: Citric acid induced conscious cough model. The conditions noted are these: 2 h before citric acid aerosol (0.4 M); for Inhibition of cough compared to vehicle: coughs recorded 10 minutes. The class given is in vivo, guinea pig. How it is done:
Male Hartley guinea pigs (200–600 g, Harlan, UK) were acclimatized in cages (20–22°C, with a light/dark cycle of 12/12 hours) before beginning of the experiments and were maintained on an ad lib standard guinea pig pellet diet and water containing dietary amounts of ascorbic acid.
Cough was detected both by pressure change and by sound and recorded with a Buxco cough analyzer (Buxco, Wilmington, NC, USA) as described earlier. Guinea pigs were randomly assigned to various test groups and were treated with different doses of GRC 17536 or Dextromethorphan i.p. before tussive challenge. The Vehicle control group received only 0.5% methyl cellulose. Two hours after i.p. administration of vehicle or test compounds, animals were placed in individual whole body plethysmographs and were exposed to citric acid aerosol (0.4 M) and the incidences of cough were recorded for 10 minutes with the help of Buxco cough analyzer.
For in vitro experiments, data was analyzed using GraphPad Prism 3.0 (GraphPad Software Inc. San Diego, CA, USA). For in vivo experiment, data from the treatment groups were compared with the control group. Mean values were statistically analyzed by one-way analysis of variance (ANOVA) followed by the Dunnett's Multiple Comparisons Test to evaluate significant differences between groups.

The target in series [9] is T4, TRPV4 (Homo sapiens, UniProt Q9HBA0).
T4 construct: expressed in transfected cells
Put plainly: TRP selectivity, hTRPV4/CHO, 4α-PDD as agonist. It counts as cell-based. The conditions noted are these: agonist 4α-PDD (30 µM). How it is done:
as §1
as §2, with “TRP selectivity of GRC 17536 and compound 7 was performed for TRPV1, TRPV3, TRPV4 and TRPM8 using Capsaicin (1 µM), 2-APB (1 mM), 4α-PDD (30 µM) and Icilin (250 nM) respectively, as agonist.” left out

In series [10] the target is T1, TRPA1. The series can be described thus: TLR ligand-enhanced 45Ca+2 uptake in hTRPA1/CHO cells. Further details: expressed in transfected cells. It counts as cell-based. The protocol: as §1, §2
For series [11], the target named is T5, TRPV3 (Homo sapiens, UniProt Q8NET8).
T5 construct: expressed in transfected cells
T5 sequence (Q8NET8 1-790): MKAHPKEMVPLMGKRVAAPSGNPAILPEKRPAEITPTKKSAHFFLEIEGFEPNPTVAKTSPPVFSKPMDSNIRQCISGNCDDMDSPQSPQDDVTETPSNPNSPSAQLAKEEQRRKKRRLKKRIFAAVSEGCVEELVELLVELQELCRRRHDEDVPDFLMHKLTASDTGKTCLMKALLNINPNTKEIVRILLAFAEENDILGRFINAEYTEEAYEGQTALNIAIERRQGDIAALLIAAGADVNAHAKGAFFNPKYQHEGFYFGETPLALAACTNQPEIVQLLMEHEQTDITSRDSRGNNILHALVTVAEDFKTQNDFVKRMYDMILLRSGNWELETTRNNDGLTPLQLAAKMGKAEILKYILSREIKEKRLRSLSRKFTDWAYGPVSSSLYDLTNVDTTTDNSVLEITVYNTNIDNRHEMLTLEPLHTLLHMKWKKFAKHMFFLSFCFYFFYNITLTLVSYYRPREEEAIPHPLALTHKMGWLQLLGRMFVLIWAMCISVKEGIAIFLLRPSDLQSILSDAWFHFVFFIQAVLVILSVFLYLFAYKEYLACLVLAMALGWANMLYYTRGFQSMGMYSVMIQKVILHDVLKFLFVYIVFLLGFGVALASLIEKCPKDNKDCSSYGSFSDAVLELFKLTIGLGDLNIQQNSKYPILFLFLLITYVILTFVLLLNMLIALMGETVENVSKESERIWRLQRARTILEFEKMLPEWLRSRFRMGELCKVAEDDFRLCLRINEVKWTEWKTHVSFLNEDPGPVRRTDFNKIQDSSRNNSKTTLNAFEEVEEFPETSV
The series can be described thus: TRP selectivity, hTRPV3/CHO, 2-APB as agonist. The note with it: agonist 2-APB (1 mM). The class given is cell-based. The protocol:
as §1
as §2, with “TRP selectivity of GRC 17536 and compound 7 was performed for TRPV1, TRPV3, TRPV4 and TRPM8 using Capsaicin (1 µM), 2-APB (1 mM), 4α-PDD (30 µM) and Icilin (250 nM) respectively, as agonist.” left out

For series [12], the target named is T1, TRPA1. Put plainly: Citric acid-induced Ca+2 influx in hTRPA1/CHO cells. The class given is cell-based. Further details: expressed in transfected cells. The note with it: antagonist added 15 minutes prior to agonist, read-out: IC50, inhibition of citric acid induced Ca+2 influx. The protocol:
as §1, §2

Series [13] concerns the target T1, TRPA1. On the set-up: method as in PMID 21848366. The conditions noted are these: CCD19-Lu cells; read-out: IC50 with AITC as agonist; cited from earlier work.
Series [14] deals with TRPA1 mRNA. The series can be described thus: Real-time RT-PCR of TRPA1 mRNA in hTRPA1/CHO cells. It counts as cell-based, human. The note with it: pre-incubation with TLR ligand. How it is done: Total RNA was extracted from hTRPA1/CHO cells using TRI reagent (Sigma, St. Louise, MO, USA). 3 µg of RNA was reverse transcribed using iScript select cDNA synthesis kit (Biorad Hercules, CA, USA) according to the manufacturer's instructions to produce single-stranded cDNA. RT-PCR was performed with an real-time thermal cycler Eppendorf Mastercycler Ep (Eppendorf AG, Hamburg, Germany) using iTaq SYBR Green Supermix with ROX kit (Biorad Hercules, CA, USA) with human TRPA1 specific primers: 5′-[…]-3′(sense primer) and 5′-CTTTTATGTCTACTTG GGCACCTT-3′(antisense primer). RT-PCR reaction was carried out for 40 cycles at 94°C for 30 s, 60°C for 15 s and 60°C for 60 s. Data was interpreted using 2^(-ΔΔCT) Livak method of analysis.
In general terms: Quantitative PCR measures a nucleic acid by following its amplification.

Setting [15] is: antagonist added 15 minutes prior to agonist, read-out: IC50, inhibition of citric acid induced Ca+2 influx.

By % Inhibition is commonly meant the relative decrease from the control value, in per cent. The low end stands for a weak effect, the high end for a strong effect. Usually IC50 stands for the concentration that gives 50% inhibition.

Read-outs that look alike come from different tables or passages of the source.

T1 sequence (O75762 whole entry): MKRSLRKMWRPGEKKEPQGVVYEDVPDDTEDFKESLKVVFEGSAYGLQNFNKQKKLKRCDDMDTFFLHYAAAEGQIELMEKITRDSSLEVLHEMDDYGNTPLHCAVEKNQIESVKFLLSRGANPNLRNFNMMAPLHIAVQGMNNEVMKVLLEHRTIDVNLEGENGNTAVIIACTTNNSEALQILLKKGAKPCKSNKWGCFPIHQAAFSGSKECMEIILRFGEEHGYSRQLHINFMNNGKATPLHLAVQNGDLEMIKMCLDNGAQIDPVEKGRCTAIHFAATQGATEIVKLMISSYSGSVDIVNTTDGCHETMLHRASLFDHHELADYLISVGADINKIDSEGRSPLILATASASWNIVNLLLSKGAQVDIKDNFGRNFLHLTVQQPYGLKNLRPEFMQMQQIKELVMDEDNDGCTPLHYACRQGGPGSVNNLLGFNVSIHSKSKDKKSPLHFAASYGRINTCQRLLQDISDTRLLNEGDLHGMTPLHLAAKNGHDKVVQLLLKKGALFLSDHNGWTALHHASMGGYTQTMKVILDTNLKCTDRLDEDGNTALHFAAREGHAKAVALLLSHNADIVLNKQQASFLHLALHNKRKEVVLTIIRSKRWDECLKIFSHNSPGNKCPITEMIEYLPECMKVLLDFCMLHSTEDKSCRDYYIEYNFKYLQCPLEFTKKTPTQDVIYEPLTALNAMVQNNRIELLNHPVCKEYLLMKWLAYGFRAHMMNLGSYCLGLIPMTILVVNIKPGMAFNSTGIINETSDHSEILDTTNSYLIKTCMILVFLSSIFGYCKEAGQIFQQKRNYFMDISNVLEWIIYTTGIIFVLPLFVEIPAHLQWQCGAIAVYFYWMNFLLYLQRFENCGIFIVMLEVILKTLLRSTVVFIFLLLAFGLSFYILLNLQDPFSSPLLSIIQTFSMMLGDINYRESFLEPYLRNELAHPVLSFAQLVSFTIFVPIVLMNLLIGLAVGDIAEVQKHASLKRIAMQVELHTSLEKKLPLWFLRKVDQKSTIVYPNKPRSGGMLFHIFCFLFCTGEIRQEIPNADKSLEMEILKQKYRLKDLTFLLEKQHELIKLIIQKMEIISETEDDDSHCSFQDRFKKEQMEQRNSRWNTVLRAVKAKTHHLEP
T4 sequence (Q9HBA0 whole entry): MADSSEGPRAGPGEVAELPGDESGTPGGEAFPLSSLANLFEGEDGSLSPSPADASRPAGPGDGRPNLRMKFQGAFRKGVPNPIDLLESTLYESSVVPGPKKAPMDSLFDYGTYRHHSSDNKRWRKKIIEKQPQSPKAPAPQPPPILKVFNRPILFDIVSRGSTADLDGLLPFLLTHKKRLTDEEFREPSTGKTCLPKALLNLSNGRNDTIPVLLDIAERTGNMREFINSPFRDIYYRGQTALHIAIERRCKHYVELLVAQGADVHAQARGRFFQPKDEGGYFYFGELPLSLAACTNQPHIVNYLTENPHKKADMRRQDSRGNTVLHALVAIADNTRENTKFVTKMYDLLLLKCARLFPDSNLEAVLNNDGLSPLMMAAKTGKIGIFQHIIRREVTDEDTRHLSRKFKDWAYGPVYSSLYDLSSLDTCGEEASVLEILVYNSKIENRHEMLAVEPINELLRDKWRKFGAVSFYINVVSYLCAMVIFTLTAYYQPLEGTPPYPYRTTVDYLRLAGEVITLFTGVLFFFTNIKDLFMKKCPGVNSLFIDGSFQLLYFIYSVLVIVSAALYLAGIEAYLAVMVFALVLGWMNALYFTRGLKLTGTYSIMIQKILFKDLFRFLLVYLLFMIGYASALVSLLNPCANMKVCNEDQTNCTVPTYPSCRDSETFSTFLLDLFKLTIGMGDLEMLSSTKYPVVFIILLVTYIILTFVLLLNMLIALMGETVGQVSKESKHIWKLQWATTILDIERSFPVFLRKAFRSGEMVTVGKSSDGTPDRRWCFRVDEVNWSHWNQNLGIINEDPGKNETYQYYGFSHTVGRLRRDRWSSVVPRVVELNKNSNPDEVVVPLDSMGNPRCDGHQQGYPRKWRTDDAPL
T3 sequence (Q7Z2W7 whole entry): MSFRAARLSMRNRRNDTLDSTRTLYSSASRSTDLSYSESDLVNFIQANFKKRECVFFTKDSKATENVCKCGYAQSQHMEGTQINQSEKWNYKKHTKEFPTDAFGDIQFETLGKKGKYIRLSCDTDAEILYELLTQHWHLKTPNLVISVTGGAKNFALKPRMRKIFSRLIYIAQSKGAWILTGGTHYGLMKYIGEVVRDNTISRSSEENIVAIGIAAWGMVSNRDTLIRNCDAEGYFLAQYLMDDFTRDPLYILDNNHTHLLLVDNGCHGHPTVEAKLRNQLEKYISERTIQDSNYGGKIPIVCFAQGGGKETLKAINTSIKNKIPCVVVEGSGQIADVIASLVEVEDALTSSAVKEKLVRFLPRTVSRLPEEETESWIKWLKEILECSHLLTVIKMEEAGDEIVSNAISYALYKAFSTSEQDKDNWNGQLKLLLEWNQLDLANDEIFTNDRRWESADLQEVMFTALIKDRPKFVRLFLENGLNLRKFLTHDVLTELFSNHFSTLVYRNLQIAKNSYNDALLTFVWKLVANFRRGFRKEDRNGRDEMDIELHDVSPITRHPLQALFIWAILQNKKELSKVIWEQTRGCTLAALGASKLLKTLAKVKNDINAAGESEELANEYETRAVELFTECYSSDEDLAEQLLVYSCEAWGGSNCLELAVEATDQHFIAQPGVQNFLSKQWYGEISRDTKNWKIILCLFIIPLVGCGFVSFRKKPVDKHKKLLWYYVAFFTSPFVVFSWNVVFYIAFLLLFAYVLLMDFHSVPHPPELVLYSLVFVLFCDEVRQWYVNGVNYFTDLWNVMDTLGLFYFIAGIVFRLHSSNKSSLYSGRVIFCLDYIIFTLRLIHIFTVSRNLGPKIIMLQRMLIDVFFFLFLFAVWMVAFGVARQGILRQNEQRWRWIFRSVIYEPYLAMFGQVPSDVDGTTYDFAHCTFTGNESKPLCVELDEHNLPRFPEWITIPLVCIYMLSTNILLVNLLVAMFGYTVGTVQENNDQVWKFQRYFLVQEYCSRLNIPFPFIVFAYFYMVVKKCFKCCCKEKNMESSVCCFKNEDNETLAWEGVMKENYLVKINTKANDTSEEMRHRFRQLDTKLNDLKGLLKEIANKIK
T2 sequence (Q8NER1 whole entry): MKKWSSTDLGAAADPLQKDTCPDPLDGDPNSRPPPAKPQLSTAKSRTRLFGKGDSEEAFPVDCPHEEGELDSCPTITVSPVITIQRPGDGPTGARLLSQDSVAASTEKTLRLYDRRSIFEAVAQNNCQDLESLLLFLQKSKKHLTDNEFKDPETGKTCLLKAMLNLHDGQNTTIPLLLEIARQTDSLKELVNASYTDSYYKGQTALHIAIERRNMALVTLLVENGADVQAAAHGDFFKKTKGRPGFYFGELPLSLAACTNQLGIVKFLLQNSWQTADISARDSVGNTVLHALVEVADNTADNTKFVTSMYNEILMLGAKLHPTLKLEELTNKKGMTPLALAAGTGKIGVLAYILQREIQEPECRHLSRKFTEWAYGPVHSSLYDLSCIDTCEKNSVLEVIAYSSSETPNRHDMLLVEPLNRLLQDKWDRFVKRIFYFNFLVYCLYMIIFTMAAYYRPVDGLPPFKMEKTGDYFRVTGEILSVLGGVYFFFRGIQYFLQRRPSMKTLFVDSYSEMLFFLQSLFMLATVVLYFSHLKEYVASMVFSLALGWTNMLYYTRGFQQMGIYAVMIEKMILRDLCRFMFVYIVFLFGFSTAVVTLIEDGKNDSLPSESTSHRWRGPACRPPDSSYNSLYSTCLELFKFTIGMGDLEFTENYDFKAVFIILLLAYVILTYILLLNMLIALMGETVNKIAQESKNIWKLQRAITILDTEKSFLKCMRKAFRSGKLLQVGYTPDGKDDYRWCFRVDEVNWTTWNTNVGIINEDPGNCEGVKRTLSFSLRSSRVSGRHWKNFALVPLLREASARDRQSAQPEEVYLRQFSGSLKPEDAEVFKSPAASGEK

For the compound `O=C(Nc1cccc2cnccc12)N[C@@H]1CC2(CCC2)Oc2ccc(F)cc21` [GRC 6211], the “Inhibition of citric acid induced increase in Ca+2” value in series [1] (up to 10 µM antagonist) and in series [2] (up to 10 µM antagonist) was “failed to inhibit” each time.
As to `Cn1c(=O)c2c(CC(=O)Nc3nc(-c4ccc(F)c(C(F)(F)F)c4F)cs3)csc2n(C)c1=O` [GRC 17536], the “% Inhibition at 1 µM, TRPV1” value in series [3] was determined as 5.6%. For the same compound, the “Free mean plasma concentration” value in series [4] is on record as “around its in vitro IC50 value”. For the same compound, the IC50 is 2.06 nM in series [5]; 8.2 nM in series [1] (setting [15]); 4.6 nM in series [12]; 5 nM in series [2] (setting [15]); 2.71 nM in series [13]. In addition, the “% Inhibition at 1 µM, TRPM8” value in series [6] is given as 8.6%. The “Inhibition of LPS + AITC induced 45Ca+2 uptake” value in series [7] (A549, 10 nM) amounted to 40.4%; in series [7] (A549, 1 µM) it was 95.3%; in series [10] (hTRPA1/CHO, 10 nM), 51.3%; in series [10] (hTRPA1/CHO, 1 µM), 98.4%. For the same compound, the “Inhibition of Loxoribine + AITC induced 45Ca+2 uptake” value in series [7] (A549, 10 nM) is recorded as 68.1%; in [7] (A549, 1 µM) it was 97.4%; in [10] (hTRPA1/CHO, 10 nM) it was 56.6%; in series [10] (hTRPA1/CHO, 1 µM), 98.6%. Also, the “Inhibition of ssRNA40 + AITC induced 45Ca+2 uptake” value in series [7] (A549, 10 nM) worked out at 53.2%; in series [7] (A549, 1 µM), 98.7%; in [10] (hTRPA1/CHO, 10 nM), 63.0%; in [10] (hTRPA1/CHO, 1 µM) it was 96.1%. The “Inhibition of TLR ligand-enhanced 45Ca+2 uptake (summary)” value is reported as around 50% in series [7] (A549, 10 nM, stated for both cell types) and around 50% in [10] (hTRPA1/CHO, 10 nM, stated for both cell types). Further, the “Inhibition of 45Ca+2 uptake at the highest concentration (summary)” value in [7] (A549, 1 µM) is “Complete inhibition”; in [10] (hTRPA1/CHO, 1 µM), “Complete inhibition”. In addition, in series [8] (30 mg/kg i.p.), the “Inhibition of cough response” value is given as “no significant protective response”. Besides, the results for the “Inhibition of cough compared to vehicle” value in [8] (60 mg/kg i.p.) and in series [8] (100 mg/kg i.p.) were 79% and 89%, respectively. In addition, in series [9], the “% Inhibition at 1 µM, TRPV4” value is 8.2%. Besides, the “% Inhibition at 1 µM, TRPV3” value in series [11] amounted to 27.3%.
Consider `C=CCn1c(=O)n([C@@H]2O[C@H](CO)[C@@H](O)[C@H]2O)c2nc(N)[nH]c(=O)c21` [Loxoribine, reference compound], for which, in series [14], the “TRPA1 mRNA levels compared to control” value is “enhance TRPA1 expression”. The “Enhancement of AITC mediated 45Ca+2 uptake” value in series [7] (A549 cells, TLR ligand pre-treatment 16-18 hours) stood at 30%. Moreover, in series [10] (hTRPA1/CHO, pre-treatment Loxoribine 10 µM or ssRNA40 1 µg/ml, 16-18 hours), the “Increase in 45Ca+2 uptake over AITC alone” value was determined as 20%. In [10] (ligand alone, no TRPA1 agonist, 'these cells', data not shown), the “Increase in 45Ca+2 uptake by TLR ligand alone” value is “did not show any increase”.

Values taken from article PMC4018403, “Transient Receptor Potential Ankyrin 1 Receptor Activation In Vitro and In Vivo by Pro-tussive Agents: GRC 17536 as a Promising Anti-Tussive Therapeutic” (PLoS ONE, 2014).
